Calls of active or inactive are those of the source. The rule behind the calls is not given here.
Columns and labels:
[1] = Covalent binding affinity to L-cysteine assessed as increase in 619.2 Da mass at L-cysteine to compound concentration ratio of 1:4 incubated for 8 hrs by LC-MS analysis
[2] = test system: Epidermal growth factor receptor (Homo sapiens), P00533 [L858R,T790M]; experiment: Inhibition of human partial length EGFR (R669 to V1011 residues) L858R/T790M mutant expressed in mammalian expression system assessed as residual activity at 1 uM by KINOMEscan analysis
[3] = test system: Epidermal growth factor receptor (Homo sapiens), P00533 [L858R]; experiment: Inhibition of human partial length EGFR (R669 to V1011 residues) L858R mutant expressed in bacterial expression system assessed as residual activity at 1 uM by KINOMEscan analysis
[4] = biological target: STE20-like serine/threonine-protein kinase (Homo sapiens, UniProt Q9H2G2); experiment: Inhibition of human wild type partial length SLK (S14 to A307 residues) expressed in bacterial expression system assessed as residual activity at 1 uM by KINOMEscan analysis
[5] = biological target: Epidermal growth factor receptor (Homo sapiens, UniProt P00533, T790M); experiment: Inhibition of human partial length EGFR (R669 to G1022 residues) T790M mutant expressed in mammalian expression system by KINOMEscan analysis
[6] = biological target: Proto-oncogene tyrosine-protein kinase Src (Homo sapiens, UniProt P12931); experiment: Inhibition of human wild type partial length Src kinase (L240 to L536 residues) expressed in bacterial expression system by KINOMEscan analysis
[7] = biological target: Epidermal growth factor receptor (Homo sapiens, UniProt P00533); experiment: Inhibition of wild type EGFR in human A-431 cells assessed as inhibition of EGF-induced ERK1/2 phosphorylation at 0.1 to 10 uM pretreated with compound for 4 hrs followed by incubation with EGF for 10 mins by western blot analysis; type: toxicity, cell-based; conditions: a-431, 4.167 h, dose 0.1-10 µM, time 250 min
A549 = experiment: Induction of apoptosis in human A549 cells assessed as induction of PARP cleavage at 0.1 to 10 uM pretreated with compound for 4 hrs followed by incubation with EGF for 10 mins by western blot analysis; type: toxicity, cell-based; conditions: a549, 4.167 h, dose 0.1-10 µM, time 250 min
[8] = Half life in Sprague-Dawley rat at 1 mg/kg, iv by LC-MS analysis; type: ADME, organism-based; conditions: in vivo
[9] = Cmax in Sprague-Dawley rat at 1 mg/kg, iv by LC-MS analysis; type: ADME, organism-based; design: dose 1 mg/kg, route iv; conditions: in vivo
[10] = AUC (0 to t) in Sprague-Dawley rat at 1 mg/kg, iv by LC-MS analysis; type: ADME, organism-based; design: dose 1 mg/kg, route iv; conditions: in vivo
NCI-H1975 [11] = experiment: Antitumor activity against human NCI-H1975 cells xenografted in BALB/c mouse assessed as inhibition of tumor burden at 20 mg/kg/day, ip; type: functional, organism-based
NCI-H1975 [12] = experiment: Antitumor activity against human NCI-H1975 cells xenografted in BALB/c mouse assessed as tumor regression at 5 to 10 mg/kg/day, ip; type: functional, organism-based; conditions: dose 5-10 mg/kg/day
[13] = Toxicity in BALB/c mouse xenografted with human NCI-H1975 cells assessed as change in liver morphological changes at 5 to 20 mg/kg/day, ip by hematoxylin-eosin staining based analysis; type: organism-based; conditions: in vivo, dose 5-20 mg/kg/day
Mus musculus [14] = experiment: In vivo inhibition of EGFR L858R/T790M mutant in ip dosed NCI-H1975 cells xenografted BALB/c mouse assessed as inhibition of ERK-1/2 phosphorylation in tumor by immunoblot analysis; type: functional, organism-based; conditions: dose 5-20 mg/kg/day
Mus musculus [15] = experiment: In vivo inhibition of EGFR L858R/T790M mutant in NCI-H1975 cells xenografted BALB/c mouse assessed as inhibition of ERK-1/2 phosphorylation in tumor at 20 mg/kg/day, ip by immunoblot analysis; type: functional, organism-based
Mus musculus [16] = experiment: In vivo inhibition of EGFR L858R/T790M mutant in NCI-H1975 cells xenografted BALB/c mouse assessed as inhibition of EGFR phosphorylation at Tyr1068 residue at 5 to 20 mg/kg/day, ip in tumor by immunohistochemistry; type: functional, organism-based; conditions: dose 5-20 mg/kg/day
Mus musculus [17] = experiment: In vivo inhibition of EGFR L858R/T790M mutant in NCI-H1975 cells xenografted BALB/c mouse assessed as inhibition of AKT phosphorylation at Ser473 residue at 5 to 20 mg/kg/day, ip in tumor by immunohistochemistry; type: functional, organism-based; conditions: dose 5-20 mg/kg/day
NCI-H1975 [18] = experiment: (§1) Antiproliferative activity against N-(3-((6-Fluoro-2-((4-(4-methylpiperazin-1-yl)phenyl)amino)quinazolin-4-yl)amino)phenyl)acrylamide-resistant human NCI-H1975 cells assessed as reduction in cell viability at compound:AIM100 concentration ratio of 3:1 to 1:3 measured after 72 hrs in presence of ACK1 inhibitor, AIM100 by MTT assay; type: functional, cell-based
NCI-H1975 [19] = experiment: as §1, with “compound:dasatinib” for “compound:AIM100”, “Dasatinib” for “AIM100”; type: functional, cell-based
[20] = test system: Epidermal growth factor receptor (Homo sapiens), P00533 [L858R,T790M]; experiment: (§2) Inhibition of EGFR L858R/T790M mutant in N-(3-((6-Fluoro-2-((4-(4-methylpiperazin-1-yl)phenyl)amino)quinazolin-4-yl)amino)phenyl)acrylamide-resistant human NCI-H1975 cells assessed as inhibition of EGF-induced EGFR phosphorylation at Tyr1068 residue pretreated with compound for 4 hrs followed by incubation with EGF for 10 mins by western blot analysis; type: cell-based; conditions: time 250.0 min
[21] = test system: Epidermal growth factor receptor (Homo sapiens), P00533 [L858R,T790M]; experiment: as §2, with “EGF-induced AKT” for “EGF-induced EGFR”, “at Ser473” for “at Tyr1068”, “compound and ACK1 inhibitor, Bosutinib” for “compound”; type: cell-based; conditions: time 250.0 min
NCI-H1975 [22] = experiment: (§3) Antitumor activity against N-(3-((6-Fluoro-2-((4-(4-methylpiperazin-1-yl)phenyl)amino)quinazolin-4-yl)amino)phenyl)acrylamide-resistant human NCI-H1975 cells xenografted in BALB/c mouse assessed as inhibition of tumor volume at 20 mg/kg/day, ip in presence of ACK1 inhibitor, dasatinib; type: functional, organism-based
[23] = (§4) Toxicity in BALB/c mouse xenografted with N-(3-((6-Fluoro-2-((4-(4-methylpiperazin-1-yl)phenyl)amino)quinazolin-4-yl)amino)phenyl)acrylamide-resistant human NCI-H1975 cells assessed as changes in liver morphological changes at 20 mg/kg/day, ip in presence of ACK1 inhibitor, dasatinib by hematoxylin-eosin staining based analysis; type: organism-based; conditions: in vivo
[24] = as §4, with “spleen” for “liver”; type: organism-based; conditions: in vivo
Mus musculus [25] = experiment: In vivo inhibition of EGFR L858R/T790M mutant in N-(3-((6-Fluoro-2-((4-(4-methylpiperazin-1-yl)phenyl)amino)quinazolin-4-yl)amino)phenyl)acrylamide-resistant human NCI-H1975 cells xenografted BALB/c mouse assessed as inhibition of EGFR phosphorylation at Tyr1068 residue in tumor at 20 mg/kg/day, ip in presence of ACK1 inhibitor, dasatinib by immunoblot analysis; type: functional, organism-based
NCI-H1975 [26] = experiment: as §3, with “[…] in TUNEL-positive cells in” for “inhibition of”, “tumor” for “tumor volume”, “dasatinib by TUNEL assay” for “dasatinib”; type: functional, organism-based

Chain of Proto-oncogene tyrosine-protein kinase Src (P12931 2-536 limits assumed): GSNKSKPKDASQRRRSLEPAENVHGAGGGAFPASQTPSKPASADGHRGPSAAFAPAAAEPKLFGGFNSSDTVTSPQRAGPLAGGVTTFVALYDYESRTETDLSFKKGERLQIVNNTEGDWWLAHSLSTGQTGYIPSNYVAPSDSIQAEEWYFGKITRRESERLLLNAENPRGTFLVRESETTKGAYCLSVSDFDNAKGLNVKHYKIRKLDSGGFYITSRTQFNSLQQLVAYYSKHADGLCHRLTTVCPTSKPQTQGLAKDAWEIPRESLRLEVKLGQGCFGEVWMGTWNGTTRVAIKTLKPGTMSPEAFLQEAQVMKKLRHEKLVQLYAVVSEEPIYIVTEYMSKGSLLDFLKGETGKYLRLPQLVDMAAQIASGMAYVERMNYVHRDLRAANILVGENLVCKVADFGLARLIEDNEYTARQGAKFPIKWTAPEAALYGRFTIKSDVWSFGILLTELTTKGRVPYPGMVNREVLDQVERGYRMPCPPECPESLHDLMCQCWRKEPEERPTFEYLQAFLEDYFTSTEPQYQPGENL
Chain of STE20-like serine/threonine-protein kinase (Q9H2G2 whole entry, looked up, the tested form may be a part): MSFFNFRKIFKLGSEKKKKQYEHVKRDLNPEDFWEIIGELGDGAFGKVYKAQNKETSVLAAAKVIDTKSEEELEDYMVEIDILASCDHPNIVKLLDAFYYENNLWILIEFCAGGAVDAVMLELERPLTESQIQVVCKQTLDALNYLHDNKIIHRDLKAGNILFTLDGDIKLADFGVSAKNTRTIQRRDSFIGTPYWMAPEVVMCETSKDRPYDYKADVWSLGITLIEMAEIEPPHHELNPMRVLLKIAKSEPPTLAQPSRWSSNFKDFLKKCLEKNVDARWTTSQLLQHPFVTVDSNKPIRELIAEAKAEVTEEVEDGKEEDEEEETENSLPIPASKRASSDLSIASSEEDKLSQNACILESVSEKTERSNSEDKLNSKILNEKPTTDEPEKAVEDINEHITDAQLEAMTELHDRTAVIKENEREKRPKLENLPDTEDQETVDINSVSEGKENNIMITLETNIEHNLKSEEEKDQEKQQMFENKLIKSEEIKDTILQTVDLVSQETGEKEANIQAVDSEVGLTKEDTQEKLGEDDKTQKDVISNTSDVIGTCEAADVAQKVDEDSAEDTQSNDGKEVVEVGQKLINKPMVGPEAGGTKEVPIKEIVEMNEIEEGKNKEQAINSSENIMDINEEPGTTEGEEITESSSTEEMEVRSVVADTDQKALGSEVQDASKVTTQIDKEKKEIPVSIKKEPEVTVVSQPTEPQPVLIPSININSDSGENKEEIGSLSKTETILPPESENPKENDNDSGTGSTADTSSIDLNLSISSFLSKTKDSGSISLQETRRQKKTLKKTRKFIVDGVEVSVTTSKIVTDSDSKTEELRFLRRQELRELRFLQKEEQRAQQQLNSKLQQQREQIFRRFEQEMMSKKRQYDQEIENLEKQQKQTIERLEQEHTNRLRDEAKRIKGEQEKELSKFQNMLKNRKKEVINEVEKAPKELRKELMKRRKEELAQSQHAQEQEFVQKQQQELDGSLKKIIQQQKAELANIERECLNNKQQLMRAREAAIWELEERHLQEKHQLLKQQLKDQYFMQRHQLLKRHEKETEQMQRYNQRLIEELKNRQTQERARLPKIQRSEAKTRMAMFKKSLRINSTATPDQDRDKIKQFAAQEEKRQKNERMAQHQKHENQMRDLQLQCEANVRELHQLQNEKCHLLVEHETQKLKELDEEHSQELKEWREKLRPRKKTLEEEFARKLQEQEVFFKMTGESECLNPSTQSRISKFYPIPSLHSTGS

## C=CC(=O)Nc1cccc(Nc2nc(Nc3ccc(N4CCN(C)CC4)cc3)nc3ccc(F)cc23)c1
[1]
  Activity: Active
[2]
  Activity: 1%
[3]
  Activity: 1%
[4]
  Activity: 29%
[5]
  IC50: 6.7 nM
[6]
  IC50: 603 nM
[7]
  inhibition (INH): Not Active
A549
  Activity: Non-Toxic
[8]
  half-life: 1.76 h
[9]
  Cmax: 650 ng/mL
[10]
  AUC(0-t): 1040 ng·h/mL
NCI-H1975 [11]
  Activity: Active
NCI-H1975 [12]
  Activity: Active
[13]
  Activity: Non-Toxic
Mus musculus [14]
  inhibition: Dose-Dependent Effect
Mus musculus [15]
  inhibition: Active
Mus musculus [16]
  inhibition: Active
Mus musculus [17]
  inhibition: Active
NCI-H1975 [18]
  Activity: Active
NCI-H1975 [19]
  Activity: Active
[20]
  inhibition: Active
[21]
  inhibition: Active
NCI-H1975 [22]
  Activity: Active
[23]
  Activity: Non-Toxic
[24]
  Activity: Non-Toxic
Mus musculus [25]
  inhibition: Active
NCI-H1975 [26]
  Activity: Active
